From the NIST ThermoML archive (doi:10.1016/j.jct.2018.09.026)

Assay: mn = molality of the nth substance listed, in mol/kg
Conditions: 100 kPa, Liquid; for speed of sound: Frequency=3 MHz, Single path-length method; for mass density: Vibrating tube method

CNCCC=C1c2ccccc2CCc2ccccc21.Cl + O
Conditions | mass density, 288.15 K [kg/m3] | mass density, 293.15 K [kg/m3] | mass density, 298.15 K [kg/m3] | mass density, 303.15 K [kg/m3] | mass density, 308.15 K [kg/m3] | speed of sound, 288.15 K [m/s] | speed of sound, 293.15 K [m/s] | speed of sound, 298.15 K [m/s] | speed of sound, 303.15 K [m/s] | speed of sound, 308.15 K [m/s]
m1 = 0.025 | 1000.19 | 999.27 | 998.086 | 996.667 | 995.032 | 1471.8 | 1487.4 | 1501.2 | 1513.2 | 1523.6
m1 = 0.05 | 1001.25 | 1000.3 | 999.096 | 997.655 | 995.999 | 1475.9 | 1491.2 | 1504.8 | 1516.7 | 1526.8
m1 = 0.075 | 1002.26 | 1001.3 | 1000.07 | 998.612 | 996.941 | 1478.3 | 1493.7 | 1507.2 | 1519 | 1529.1
